Test results: patent US7897602B2, “Indolinone compounds as kinase inhibitors” (Development Center for Biotechnology, priority 2009, dated 2011)

What was measured:
VEGFR2 kinase = biological target: T1, VEGFR2 kinase (Homo sapiens, UniProt P35968); assay: VEGFR2 kinase assay (33P incorporation into Poly(Glu-Tyr)); assay type: biochemical; conditions: 500 nM test compound; read-out: Inhibition at 500 nM (%) VEGFr-2
T1 construct: recombinant N-terminal 6×His-tagged VEGFR2 kinase domain construct expressed by baculovirus; 6xHis (N); made in house
T1 sequence (P35968 834-1162 limits assumed): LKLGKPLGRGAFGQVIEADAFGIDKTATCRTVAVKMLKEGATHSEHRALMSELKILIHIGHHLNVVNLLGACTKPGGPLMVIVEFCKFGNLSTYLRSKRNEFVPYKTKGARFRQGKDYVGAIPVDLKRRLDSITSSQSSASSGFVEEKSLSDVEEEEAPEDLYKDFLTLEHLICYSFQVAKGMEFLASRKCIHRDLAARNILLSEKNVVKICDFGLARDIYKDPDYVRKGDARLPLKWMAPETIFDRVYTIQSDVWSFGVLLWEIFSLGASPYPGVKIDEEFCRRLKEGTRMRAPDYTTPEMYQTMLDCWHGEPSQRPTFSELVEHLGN
Experimental: Inhibition of VEGFR2 kinase activity by compounds disclosed herein was quantified by measuring the amount of [^33P] incorporated into the substrate in the presence of a test compound. Specifically, a reaction mixture with a final volume of 25 μL and containing 6.25 ng of VEGFR2 kinase (obtained by purifying recombinant N-terminal 6×His-tagged VEGFR2 kinase domain construct expressed by baculovirus), 5 μg of substrate (Poly (Glu-Tyr, 4:1, Sigma)), kinase reaction buffer (20 mM MOPS pH 7.0, 1 mM EDTA, 5% glycerol, 0.01% Brij-35, 0.1% β-mercaptoethanol, 1 mg/mL BSA, 100 μM ATP, 0.1 μCi per well [^33P]-γ-ATP (2,500-3,000 Ci/mmol), and 500 nM test compound (final concentration of DMSO was 4%) or 4% DMSO alone (as the control sample), was incubated at 30° C. for 30 minutes. The reaction was then stopped by adding 5 μL of 3% phosphoric acid solution. The resultant solution was transferred to and harvested by a filter plate (UniFilter-96 GF/B, PerkinElmer). The filter plate was then washed 20 times with d.d. H2O for 5 min followed by the addition of 30 μL of MicroScint™-20 Cocktail (PerkinElmer). After the plate was sealed, the retained radioactivity on the filter was counted using a TopCount scintillation detector (PerkinElmer). The percentage of inhibition rate of the test compound was calculated by dividing the retained radioactivity of the test sample with the retained radioactivity of the control sample and shown in Table 3.

Flt3 kinase = biological target: T2, Flt3 kinase (Homo sapiens, UniProt P36888); assay: Flt3 kinase assay (33P incorporation into Poly(Glu-Tyr)); assay type: biochemical; conditions: 100 nM test compound; read-out: Inhibition at 100 nM (%) Flt-3
T2 construct: recombinant N-terminal 6×His-tagged Flt3 kinase domain construct expressed from baculovirus; 6xHis (N); made in house
T2 sequence (P36888 610-943 limits assumed): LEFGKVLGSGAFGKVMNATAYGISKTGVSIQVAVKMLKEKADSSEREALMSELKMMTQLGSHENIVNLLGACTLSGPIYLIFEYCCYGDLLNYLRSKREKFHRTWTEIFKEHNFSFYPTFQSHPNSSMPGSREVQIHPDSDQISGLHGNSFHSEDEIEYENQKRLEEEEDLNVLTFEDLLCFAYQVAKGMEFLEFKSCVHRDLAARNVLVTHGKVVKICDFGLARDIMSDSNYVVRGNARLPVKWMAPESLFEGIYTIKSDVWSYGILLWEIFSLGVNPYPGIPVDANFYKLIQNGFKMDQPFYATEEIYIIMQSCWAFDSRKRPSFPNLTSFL
Experimental: Inhibition of Flt3 kinase activity by compounds disclosed herein was quantified by measuring the amount of [^33P] incorporated into the substrate in the presence of a test compound. Briefly, a reaction mixture of 25 μL final volume containing 5 ng of Flt3 kinase (obtained by purifying recombinant N-terminal 6×His-tagged Flt3 kinase domain construct expressed from baculovirus), 5 μg of the substrate (Poly (Glu-Tyr, 4:1, Sigma)), kinase reaction buffer (20 mM MOPS pH 7.0, 1 mM EDTA, 5% glycerol, 0.01% Brij-35, 0.1% β-mercaptoethanol, 1 mg/mL BSA, 100 μM ATP, 0.1 μCi per well [^33P]-γ-ATP (2,500-3,000 Ci/mmol)), and a test compound (100 nM, diluted with 4% DMSO) or DMSO (as the control) was incubated at 30° C. for 30 minutes. The reaction was stopped by adding 5 μL of 3% phosphoric acid solution. The resultant reaction solution was then harvested onto a filter plate (UniFilter-96 GF/B, PerkinElmer), washed 20 times for 5 min with d.d. H2O, and followed by the addition of 30 μL of MicroScint™-20 Cocktail (PerkinElmer). The plate was then sealed and counted using a TopCount scintillation detector (PerkinElmer). The percentage of inhibition rate of the test compound was calculated by dividing the retained radioactivity of the test sample with the retained radioactivity of the control sample and shown in Table 3.

| Structure (SMILES) | inhibition at 0.5 µM (VEGFR2 kinase) [%] | inhibition at 0.1 µM (Flt3 kinase) [%] |
| --- | --- | --- |
| CCOC(=O)CCc1c(/C=C2\C(=O)Nc3cc(F)ccc32)[nH]c2c1C(=O)CCC2 [DCB-70122, (Z)-6-fluoro-3-((3-(3-ethoxy-3-oxopropyl)-4-oxo-4,5,6,7-tetrahydro-1H-indol-2-yl)methylene)indolin-2-one] | 84 | 82.2 |
| CNS(=O)(=O)c1ccc2c(c1)/C(=C/c1[nH]c3c(c1CCC(=O)O)C(=O)CCC3)C(=O)N2 [DCB-70065, (Z)-5-(N-methylsulfamoyl)-3-((3-carboxyethyl-4-oxo-4,5,6,7-tetrahydro-1H-indol-2-yl)methylene)indolin-2-one] | 47.9 | -6.8 |
| O=C(O)CCc1c(/C=C2\C(=O)Nc3ccc(S(=O)(=O)Cc4ccc(F)cc4)cc32)[nH]c2c1C(=O)CCC2 [DCB-70072, (Z)-5-(4-fluorobenzylsulfonyl)-3-((3-carboxyethyl-4-oxo-4,5,6,7-tetrahydro-1H-indol-2-yl)methylene)indolin-2-one] | 86 | -2.1 |
| CCOC(=O)CCc1c(/C=C2\C(=O)Nc3cc(-c4ccc(O)cc4)ccc32)[nH]c2c1C(=O)CCC2 [DCB-70066, (Z)-6-(4-hydroxyphenyl)-3-((3-(3-ethoxy-3-oxopropyl)-4-oxo-4,5,6,7-tetrahydro-1H-indol-2-yl)methylene)indolin-2-one] | 94.3 | 38.6 |
| CN1CCN(C(=O)CCc2c(/C=C3\C(=O)Nc4ccc(S(=O)(=O)N5CCCC5)cc43)[nH]c3c2C(=O)CCC3)CC1 [DCB-70120, (Z)-3-((3-(3-(4-methylpiperazin-l-yl)-3-oxopropyl)-4-oxo-4,5,6,7-tetrahydro-1H-indol-2-yl)methylene)-5-(pyrrolidin-1-ylsulfonyl)indolin-2-one] | 17.6 | 31.2 |
| NS(=O)(=O)c1ccc2c(c1)/C(=C/c1[nH]c3c(c1CCC(=O)O)C(=O)CCC3)C(=O)N2 [DCB-70095, (Z)-5-sulfamoyl-3-((3-carboxyethyl-4-oxo-4,5,6,7-tetrahydro-1H-indol-2-yl)methylene)indolin-2-one] | 64.4 | 27.2 |
| O=C(O)CCc1c(/C=C2\C(=O)Nc3ccc(NC(=O)c4ccc(F)cc4)cc32)[nH]c2c1C(=O)CCC2 [DCB-70076, (Z)-5-(4-fluorobenzamido)-3-((3-carboxyethyl-4-oxo-4,5,6,7-tetrahydro-1H-indol-2-yl)methylene)indolin-2-one] | 59.8 | -3.1 |
| CC(=O)Nc1ccc2c(c1)/C(=C/c1[nH]c3c(c1CCC(=O)O)C(=O)CCC3)C(=O)N2 [DCB-70104, (Z)-5-acetamido-3-((3-carboxyethyl-4-oxo-4,5,6,7-tetrahydro-1H-indol-2-yl)methylene)indolin-2-one] | 73.8 | 13.9 |
| O=C(O)CCc1c(/C=C2\C(=O)Nc3cc(-c4ccc(O)cc4)ccc32)[nH]c2c1C(=O)CCC2 [DCB-70075, (Z)-6-(4-hydroxyphenyl)-3-((3-carboxyethyl-4-oxo-4,5,6,7-tetrahydro-1H-indol-2-yl)methylene)indolin-2-one] | 99.6 | 63.5 |
| O=C(O)CCc1c(/C=C2\C(=O)Nc3ccc(NS(=O)(=O)c4ccccc4)cc32)[nH]c2c1C(=O)CCCC2 [DCB-70147, (Z)-3-(4-oxo-2-((2-oxo-5-(phenylsulfonamido)indolin-3-ylidene)methyl)-1,4,5,6,7,8-hexahydrocyclohepta[b]pyrrol-3-yl)propanoic acid] | 71.3 | 43.8 |
| CCOC(=O)CCc1c(/C=C2\C(=O)Nc3ccc(NC(=O)Nc4cccc5ccccc45)cc32)[nH]c2c1C(=O)CCC2 [DCB-70129, (Z)-ethyl 3-(2-((5-(3-naphthalen-1-ylureido)-2-oxoindolin-3-ylidene)methyl)-4-oxo-4,5,6,7-tetrahydro-1H-indol-3-yl)propanoate] | 88 | 12.3 |
| CCOC(=O)CCc1c(/C=C2\C(=O)Nc3ccc(NC(=O)Nc4ccc(F)cc4)cc32)[nH]c2c1C(=O)CCC2 [DCB-70136, (Z)-ethyl 3-(2-((5-(3-(4-fluorophenyl)ureido)-2-oxoindolin-3-ylidene)methyl)-4-oxo-4,5,6,7-tetrahydro-1H-indol-3-yl)propanoate] | 31.7 | 39.3 |
| O=C1Nc2ccc(F)cc2/C1=C/c1[nH]c2c(c1CCC(=O)N1CCOCC1)C(=O)CCC2 [DCB-70125, (Z)-5-fluoro-3-((3-(3-morpholino-3-oxopropyl)-4-oxo-4,5,6,7-tetrahydro-1H-indol-2-yl)methylene)indolin-2-one] | 83.4 | 94.6 |
| CCOC(=O)CCc1c(/C=C2\C(=O)Nc3ccc(-c4cc5ccccc5s4)cc32)[nH]c2c1C(=O)CCC2 [DCB-70069, (Z)-5-(benzo[b]thiophen-2-yl)-3-((3-(3-ethoxy-3-oxopropyl)-4-oxo-4,5,6,7-tetrahydro-1H-indol-2-yl)methylene)indolin-2-one] | 11.4 | 9.6 |
| O=C(O)CCc1c(C=C2C(=S)Nc3cc(Br)ccc32)[nH]c2c1C(=O)CCC2 [DCB-70086, 6-bromo-3-((3-carboxyethyl-4-oxo-4,5,6,7-tetrahydro-1H-indol-2-yl)methylene)indolin-2-thione] | 21.9 | 0.5 |
| CCOC(=O)CCc1c(C=C2C(=S)Nc3ccccc32)[nH]c2c1C(=O)CCC2 [DCB-70083, 3-((3-(3-ethoxy-3-oxopropyl)-4-oxo-4,5,6,7-tetrahydro-1H-indol-2-yl)methylene)indolin-2-thione] | 23.3 | 16 |
| CCOC(=O)CCc1c(/C=C2\C(=O)Nc3ccc(NC(=O)c4ccc([N+](=O)[O-])cc4)cc32)[nH]c2c1C(=O)CCC2 [DCB-70140, (Z)-ethyl 3-(2-((5-(4-nitrobenzamido)-2-oxoindolin-3-ylidene)methyl)-4-oxo-4,5,6,7-tetrahydro-1H-indol-3-yl)propanoate] | 27.6 | 5.5 |
| CCS(=O)(=O)Nc1ccc2c(c1)/C(=C/c1[nH]c3c(c1CCC(=O)O)C(=O)CCC3)C(=O)N2 [DCB-70119, (Z)-5-ethylsulfonamido-3-((3-carboxyethyl-4-oxo-4,5,6,7-tetrahydro-1H-indol-2-yl)methylene)indolin-2-one] | 33.9 | -3.9 |
| CCOC(=O)CCc1c(/C=C2\C(=O)Nc3ccc(NC(=O)Nc4ccc(Cl)c(C(F)(F)F)c4)cc32)[nH]c2c1C(=O)CCC2 [DCB-70137, (Z)-ethyl 3-(2-((5-(3-(4-chloro-3-(trifluoromethyl)phenyl)ureido)-2-oxoindolin-3-ylidene)methyl)-4-oxo-4,5,6,7-tetrahydro-1H-indol-3-yl)propanoate] | 82.9 | 33.8 |
| CCOC(=O)CCc1c(/C=C2\C(=O)Nc3ccc(S(=O)(=O)NC)cc32)[nH]c2c1C(=O)CCC2 [DCB-70064, (Z)-5-(N-methylsulfamoyl)-3-((3-(3-ethoxy-3-oxopropyl)-4-oxo-4,5,6,7-tetrahydro-1H-indol-2-yl)methylene)indolin-2-one] | 39 | 25.7 |
| O=C(O)CCc1c(/C=C2\C(=O)Nc3ccc(NS(=O)(=O)c4ccccc4)cc32)[nH]c2c1C(=O)CCC2 [DCB-70103, (Z)-5-phenylsulfonamido-3-((3-carboxyethyl-4-oxo-4,5,6,7-tetrahydro-1H-indol-2-yl)methylene)indolin-2-one] | 88.3 | 44.7 |
